pIC50: −log10 of the molar value.
Columns and labels:
Assay in all cases: cells
[1] = system: TE-5; assay type: functional, cell-based, Homo sapiens; conditions: Homo sapiens, TE-5;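 note: inhibition of cell growth, read out by a cell viability assay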
Description: SANGER: Inhibition of human TE-5 cell growth in a cell viability assay.

[2] = system: TE-9; assay type: functional, cell-based, Homo sapiens; conditions: Homo sapiens, TE-9;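 note: cell growth inhibition, measured with a cell viability readout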
Description: SANGER: Inhibition of human TE-9 cell growth in a cell viability assay.

[3] = system: HCE-4; assay type: functional, cell-based, Homo sapiens; conditions: Homo sapiens, HCE-4;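 note: cell viability assay measuring inhibition of growth in the human HCE-4 cell line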
Description: SANGER: Inhibition of human HCE-4 cell growth in a cell viability assay.

[4] = system: ES8; assay type: functional, cell-based, Homo sapiens; conditions: Homo sapiens, ES8;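 note: growth inhibition of human ES8 cells, read out with a cell viability assay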
Description: SANGER: Inhibition of human ES8 cell growth in a cell viability assay.

[5] = system: EW-1; assay type: functional, cell-based, Homo sapiens; conditions: Homo sapiens, EW-1;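 note: growth inhibition of the human EW-1 cell line, read out by a cell viability assay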
Description: SANGER: Inhibition of human EW-1 cell growth in a cell viability assay.

[6] = system: 8-MG-BA; assay type: functional, cell-based, Homo sapiens; conditions: Homo sapiens, 8-MG-BA;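 note: growth inhibition of 8-MG-BA cells, read out with a cell viability assay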
Description: SANGER: Inhibition of human 8-MG-BA cell growth in a cell viability assay.

[7] = system: ML-2; assay type: functional, cell-based, Homo sapiens; conditions: Homo sapiens, ML-2;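 note: growth inhibition of ML-2 cells, measured with a cell viability readout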
Description: SANGER: Inhibition of human ML-2 cell growth in a cell viability assay.

[8] = system: LS-123; assay type: functional, cell-based, Homo sapiens; conditions: Homo sapiens, LS-123
Description: SANGER: Inhibition of human LS-123 cell growth in a cell viability assay.

[9] = system: HH; assay type: functional, cell-based, Homo sapiens; conditions: Homo sapiens, HH
Description: SANGER: Inhibition of human HH cell growth in a cell viability assay.

[10] = system: GAK; assay type: functional, cell-based, Homo sapiens; conditions: Homo sapiens, GAK;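 note: cell growth inhibition read out by a cell viability assay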
Description: SANGER: Inhibition of human GAK cell growth in a cell viability assay.

[11] = system: A388; assay type: functional, cell-based, Homo sapiens; conditions: Homo sapiens, A388;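 note: growth inhibition of human A388 cells, read out with a cell viability assay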
Description: SANGER: Inhibition of human A388 cell growth in a cell viability assay.

[12] = system: D-392MG; assay type: functional, cell-based, Homo sapiens; conditions: Homo sapiens, D-392MG
[13] = system: COLO-684; assay type: functional, cell-based, Homo sapiens; conditions: Homo sapiens, COLO-684
Description: SANGER: Inhibition of human COLO-684 cell growth in a cell viability assay.

[14] = system: NCI-H720; assay type: functional, cell-based, Homo sapiens; conditions: Homo sapiens, NCI-H720;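 note: growth inhibition of human NCI-H720 cells determined by a cell viability assay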
Description: SANGER: Inhibition of human NCI-H720 cell growth in a cell viability assay.

[15] = system: Calu-6; assay type: functional, cell-based, Homo sapiens; conditions: Homo sapiens, Calu-6;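 note: growth of human Calu-6 cells, read out by a cell viability assay, IC50 marking inhibition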
Description: SANGER: Inhibition of human Calu-6 cell growth in a cell viability assay.

[16] = system: EW-11; assay type: functional, cell-based, Homo sapiens; conditions: Homo sapiens, EW-11;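 note: growth inhibition of human EW-11 cells, measured with a cell viability assay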
Description: SANGER: Inhibition of human EW-11 cell growth in a cell viability assay.

[17] = system: COLO-320-HSR; assay type: functional, cell-based, Homo sapiens; conditions: Homo sapiens, COLO-320-HSR;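 note: growth inhibition of COLO-320-HSR cells, determined with a cell viability assay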
Description: SANGER: Inhibition of human COLO-320-HSR cell growth in a cell viability assay.

[18] = system: D283 Med; assay type: functional, cell-based, Homo sapiens; conditions: Homo sapiens, D283 Med
Description: SANGER: Inhibition of human D-283MED cell growth in a cell viability assay.

[19] = system: EOL1; assay type: functional, cell-based, Homo sapiens; conditions: Homo sapiens, EOL1;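 note: growth inhibition of EoL-1 cells, read out by a cell viability assay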
Description: SANGER: Inhibition of human EoL-1-cell cell growth in a cell viability assay.

[20] = system: EW-16; assay type: functional, cell-based, Homo sapiens; conditions: Homo sapiens, EW-16;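 note: growth inhibition of human EW-16 cells, read out as cell viability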
Description: SANGER: Inhibition of human EW-16 cell growth in a cell viability assay.

[21] = system: LB771-HNC; assay type: functional, cell-based, Homo sapiens; conditions: Homo sapiens, LB771-HNC;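 note: growth inhibition of LB771-HNC human cells, read out with a cell viability assay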
Description: SANGER: Inhibition of human LB771-HNC cell growth in a cell viability assay.

[22] = system: LOX IMVI; assay type: functional, cell-based, Homo sapiens; conditions: Homo sapiens, LOX IMVI
Description: SANGER: Inhibition of human LOXIMVI cell growth in a cell viability assay.

[23] = system: HDLM-2; assay type: functional, cell-based, Homo sapiens; conditions: Homo sapiens, HDLM-2;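 note: cell viability assay measuring suppression of HDLM-2 proliferation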
Description: SANGER: Inhibition of human HDLM-2 cell growth in a cell viability assay.

[24] = system: NCI-H1299; assay type: functional, cell-based, Homo sapiens; conditions: Homo sapiens, NCI-H1299;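 note: growth inhibition of human NCI-H1299 cells, read out by a cell viability assay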
Description: SANGER: Inhibition of human NCI-H1299 cell growth in a cell viability assay.

[25] = system: BB30-HNC; assay type: functional, cell-based, Homo sapiens; conditions: Homo sapiens, BB30-HNC;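 note: growth inhibition of the cultured cell line, read out by a cell viability assay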
Description: SANGER: Inhibition of human BB30-HNC cell growth in a cell viability assay.

[26] = system: SHP77; assay type: functional, cell-based, Homo sapiens, SHP-77; conditions: Homo sapiens, SHP77;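 note: growth inhibition of human SHP-77 cells measured by a cell viability assay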
Description: SANGER: Inhibition of human SHP-77 cell growth in a cell viability assay.

[27] = system: LAN-6; assay type: functional, cell-based, Homo sapiens; conditions: Homo sapiens, LAN-6;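 note: growth inhibition of LAN-6 cells, determined with a cell viability assay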
Description: SANGER: Inhibition of human LAN-6 cell growth in a cell viability assay.

[28] = system: MZ7-mel; assay type: functional, cell-based, Homo sapiens; conditions: Homo sapiens, MZ7-mel;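 note: growth inhibition of human MZ7-mel cells, measured by a cell viability assay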
Description: SANGER: Inhibition of human MZ7-mel cell growth in a cell viability assay.

[29] = system: KURAMOCHI; assay type: functional, cell-based, Homo sapiens; conditions: Homo sapiens, KURAMOCHI;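 note: growth inhibition of KURAMOCHI cells, read out with a cell viability assay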
Description: SANGER: Inhibition of human KURAMOCHI cell growth in a cell viability assay.

[30] = system: KM-H2; assay type: functional, cell-based, Homo sapiens; conditions: Homo sapiens, KM-H2;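 note: growth inhibition of KM-H2 cells, read out by a cell viability assay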
Description: SANGER: Inhibition of human KM-H2 cell growth in a cell viability assay.

[31] = system: SW982; assay type: functional, cell-based, Homo sapiens; conditions: Homo sapiens, SW982;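 note: growth inhibition of SW982 cells, read out with a cell viability assay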
Description: SANGER: Inhibition of human SW982 cell growth in a cell viability assay.

[32] = system: COLO-829; assay type: functional, cell-based, Homo sapiens; conditions: Homo sapiens, COLO-829
Description: SANGER: Inhibition of human COLO-829 cell growth in a cell viability assay.

[33] = system: BV-173; assay type: functional, cell-based, Homo sapiens; conditions: Homo sapiens, BV-173
Description: SANGER: Inhibition of human BV-173 cell growth in a cell viability assay.

[34] = system: HCC 2998; assay type: functional, cell-based, Homo sapiens; conditions: Homo sapiens, HCC 2998;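 note: growth inhibition of human HCC2998 cells, measured with a cell viability read-out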
Description: SANGER: Inhibition of human HCC2998 cell growth in a cell viability assay.

[35] = system: DB; assay type: functional, cell-based, Homo sapiens; conditions: Homo sapiens, DB
Description: SANGER: Inhibition of human DB cell growth in a cell viability assay.

[36] = system: TE-12; assay type: functional, cell-based, Homo sapiens; conditions: Homo sapiens, TE-12;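 note: growth inhibition of TE-12 cells, read out by a cell viability assay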
Description: SANGER: Inhibition of human TE-12 cell growth in a cell viability assay.

[37] = system: KNS-42; assay type: functional, cell-based, Homo sapiens; conditions: Homo sapiens, KNS-42;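 note: growth inhibition of KNS-42 cells, read out with a cell viability assay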
Description: SANGER: Inhibition of human KNS-42 cell growth in a cell viability assay.

[38] = system: CGTH-W-1; assay type: functional, cell-based, Homo sapiens; conditions: Homo sapiens, CGTH-W-1;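 note: growth inhibition of human CGTH-W-1 cells measured by cell viability assay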
Description: SANGER: Inhibition of human CGTH-W-1 cell growth in a cell viability assay.

[39] = system: NB17; assay type: functional, cell-based, Homo sapiens; conditions: Homo sapiens, NB17;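 note: growth inhibition of NB17 cells, read out with a cell viability assay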
Description: SANGER: Inhibition of human NB17 cell growth in a cell viability assay.

[40] = system: COLO-800; assay type: functional, cell-based, Homo sapiens; conditions: Homo sapiens, COLO-800;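 note: growth inhibition of COLO-800 cells, read out with a cell viability assay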
Description: SANGER: Inhibition of human COLO-800 cell growth in a cell viability assay.

[41] = system: KS-1; assay type: functional, cell-based, Homo sapiens; conditions: Homo sapiens, KS-1;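 note: growth inhibition of KS-1 cells, read out with a cell viability assay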
Description: SANGER: Inhibition of human KS-1 cell growth in a cell viability assay.

[42] = system: no-11; assay type: functional, cell-based, Homo sapiens; conditions: Homo sapiens;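 note: growth inhibition of human NO-11 cells, read out with a cell viability assay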
Description: SANGER: Inhibition of human no-11 cell growth in a cell viability assay.

[43] = system: COLO-668; assay type: functional, cell-based, Homo sapiens; conditions: Homo sapiens, COLO-668
Description: SANGER: Inhibition of human COLO-668 cell growth in a cell viability assay.

[44] = system: HL-60; assay type: functional, cell-based, Homo sapiens; conditions: Homo sapiens, HL-60;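 note: growth inhibition of human HL-60 cells, read out with a cell viability assay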
Description: SANGER: Inhibition of human HL-60 cell growth in a cell viability assay.

[45] = system: TE-8; assay type: functional, cell-based, Homo sapiens; conditions: Homo sapiens, TE-8;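 note: growth inhibition of TE-8 cells, measured with a cell viability readout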
Description: SANGER: Inhibition of human TE-8 cell growth in a cell viability assay.

[46] = system: ALL-PO; assay type: functional, cell-based, Homo sapiens; conditions: Homo sapiens, ALL-PO;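 note: growth inhibition of ALL-PO cells, read out by a cell viability assay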
Description: SANGER: Inhibition of human ALL-PO cell growth in a cell viability assay.

[47] = system: JAR; assay type: functional, cell-based, Homo sapiens; conditions: Homo sapiens, JAR;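 note: growth inhibition of human JAR cells determined with a cell viability assay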
Description: SANGER: Inhibition of human JAR cell growth in a cell viability assay.

[48] = system: NCI-H1395; assay type: functional, cell-based, Homo sapiens; conditions: Homo sapiens, NCI-H1395;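 note: cell viability assay read-out quantifying reduced proliferation of human NCI-H1395 cells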
Description: SANGER: Inhibition of human NCI-H1395 cell growth in a cell viability assay.

With Nc1cccc2c1CN(C1CCC(=O)NC1=O)C2=O (stereo unspecified) [LENALIDOMIDE] the pIC50 [1] was < 5.30, the pIC50 [2] was < 5.30 and the pIC50 [3] was < 5.30. The pIC50 [4] was < 5.30, the pIC50 [5] was < 5.30 and the pIC50 [6] was < 5.30. For the same compound, the pIC50 [7] was < 5.30, the pIC50 [8] was < 5.30 and the pIC50 [9] was < 5.30. The pIC50 [10] was < 5.30, the pIC50 [11] was < 5.30 and the pIC50 [12] was < 5.30. The pIC50 [13] was < 5.30, the pIC50 [14] was < 5.30 and the pIC50 [15] was < 5.30. For the same compound, the pIC50 [16] was < 5.30, the pIC50 [17] was < 5.30 and the pIC50 [18] was < 5.30. For the same compound, the pIC50 [19] was 5.39, the pIC50 [20] was < 5.30 and the pIC50 [21] was 5.67. The pIC50 [22] was < 5.30, the pIC50 [23] was < 5.30 and the pIC50 [24] was < 5.30. The pIC50 [25] was < 5.30, the pIC50 [26] was < 5.30 and the pIC50 [27] was < 5.30. The pIC50 [28] was < 5.30, the pIC50 [29] was < 5.30 and the pIC50 [30] was < 5.30. The pIC50 [31] was < 5.30, the pIC50 [32] was < 5.30 and the pIC50 [33] was < 5.30. For the same compound, the pIC50 [34] was < 5.30, the pIC50 [35] was < 5.30 and the pIC50 [36] was < 5.30. For the same compound, the pIC50 [37] was < 5.30, the pIC50 [38] was < 5.30 and the pIC50 [39] was < 5.30. For the same compound, the pIC50 [40] was < 5.30, the pIC50 [41] was < 5.30 and the pIC50 [42] was < 5.30. For the same compound, the pIC50 [43] was < 5.30, the pIC50 [44] was < 5.30 and the pIC50 [45] was < 5.30. For the same compound, the pIC50 [46] was < 5.30, the pIC50 [47] was 5.53 and the pIC50 [48] was < 5.30.

With CN(C)C(=N)NC(=N)N [METFORMIN] the pIC50 [1] was < 1.70, the pIC50 [2] was 1.98 and the pIC50 [3] was 1.96. The pIC50 [4] was 1.77, the pIC50 [6] was < 1.70 and the pIC50 [7] was 2.83. The pIC50 [8] was 1.76, the pIC50 [9] was 2.02 and the pIC50 [10] was < 1.70. For the same compound, the pIC50 [11] was < 1.70, the pIC50 [12] was < 1.70 and the pIC50 [13] was < 1.70. The pIC50 [14] was 3.27, the pIC50 [15] was 1.82 and the pIC50 [16] was < 1.70. The pIC50 [17] was < 1.70, the pIC50 [18] was < 1.70 and the pIC50 [19] was 2.74. The pIC50 [20] was 2.17, the pIC50 [21] was < 1.70 and the pIC50 [22] was 1.97. It also gave a pIC50 [23] of 1.73, a pIC50 [24] of 2.00 and a pIC50 [25] of 1.96. For the same compound, the pIC50 [26] was < 1.70, the pIC50 [29] was < 1.70 and the pIC50 [30] was 1.73. The pIC50 [31] was < 1.70, the pIC50 [32] was < 1.70 and the pIC50 [33] was 2.52. The pIC50 [34] was < 1.70, the pIC50 [35] was < 1.70 and the pIC50 [36] was < 1.70. For the same compound, the pIC50 [38] was < 1.70, the pIC50 [39] was < 1.70 and the pIC50 [41] was < 1.70. The pIC50 [42] was < 1.70, the pIC50 [43] was < 1.70 and the pIC50 [44] was < 1.70. The pIC50 [45] was < 1.70, the pIC50 [46] was 2.54 and the pIC50 [47] was 2.04. For the same compound, the pIC50 [48] was < 1.70.

Reference: ChEMBL document CHEMBL1201861, “Genomics of Drug Sensitity in Cancer screening data, Wellcome Trust Sanger Institute”
